Assay results published in US20240218156A1, “PLASTICIZER, PLASTIC COMPOSITION, AND PLASTIC PRODUCT” (LARGAN MEDICAL CO., LTD., priority 2022, published 2024).

Legend:
[1] = Pyrolysis temperature of the plasticizer; format: physicochemical
Method: According to the plasticizer of the present disclosure, when a pyrolysis temperature of the plasticizer is Pt, the following condition can be satisfied: 100° C.≤Pt. Therefore, it is favorable for stabilizing the structure of the plasticizer at the high temperature by the high pyrolysis temperature of the plasticizer. Furthermore, the following condition can be satisfied: 120° C.≤Pt. Furthermore, the following condition can be satisfied: 150° C.≤Pt. Furthermore, the following condition can be satisfied: 170° C.≤Pt. Furthermore, the following condition can be satisfied: 180° C.≤Pt.

[2] = test system: mouse lung fibroblast (L929 cell line); assay: Cell viability test (ISO10993-5, MTT assay); format: cell-based; details: for cell viability: L929, 24 hours, 37° C.
Text: The 1st example is used as the experimental group to perform the cell viability test. Specifically, according to ISO10993-5 standard method, the mouse lung fibroblast (L929 cell line) is used as the test cell, and the composition of the test culture medium is 90% MEM culture medium, 10% fetal bovine serum (FBS) and additional 1% antibiotic (penicillin-streptomycin). Then, the ethanol with the final concentration of 0.1% is used as the solvent to dissolve the tested plasticizer in the test culture medium. The control group of the cell viability test is the test culture solution only added the ethanol with the final concentration of 0.1%. In the experimental group, the plasticizer of the 1st example with the concentration of 0.1 mM or 0.3 mM is added to the test culture solution, respectively, and the concentration of the ethanol in the test culture solution of the control group and the experimental group are the same, the test condition is the 37° C. environment containing 5% carbon dioxide placed for 24 hours. After the test finished, each group is tested with MTT assay, the detection wavelength is the optical density at 570 nm (OD570) and the optical density at 650 nm (OD650), and the cell viability is calculated accordingly. The formula for calculating the cell viability is: (the average value of OD570 and OD650 in the experimental group)/(the average value of three repetitions of (the average value of OD570 and OD650 in the control group))×100%. The cell viability is used to determine whether the group has the cytotoxicity, and when the cell viability is more than 70%, it is considered that this group is non-cytotoxic.

- Pt (º C.) [1]: 200 º C.
Compound: CCC(CC)COC(=O)CC(N)C(=O)OCC(CC)CC (stereo not shown) [1st example, 1,4-bis(2-ethylbutyl) 2-aminobutanedioate]
- toxic to the cells ([2]; 0.3 mM): will not be toxic to the cells
- cell viability ([2]; plasticizer 0.1 mM): 99.10%
- cell viability ([2]; plasticizer 0.3 mM): 81.90%
